Test: Stability to intense pulsed light (IPL) flashes, monitored by absorbance spectrum
Format: physicochemical
Conditions: ten pulses at maximum fluence of the flash lamp, visible spectral range
Method: A small study, on one subject, was conducted to see whether encapsulation of the sodium-copper-chlorophyllin within the liposome enhanced skin tanning, i.e., increased penetration and bioavailability of copper to the melanin-producing enzyme, […]. […] Three areas on the back received 1.0 MED simulated solar radiation: one area had received no treatment, one area had been pre-treated with the gel without liposome and the third area was treated with the liposome gel. An expert blinded grader scored the resulting skin tanning at 10 days after irradiation, using the Degree of Tanning scale 0 to 10 (darkest). […] Controlled dissociation of the sodium-copper-chlorophyllin complex is possible, in part because of the high stability of this complex. Normally, inorganic and organic copper salts, including copper-peptides, are not very stable with regard to binding copper. The inherent stability and lack of reactivity of sodium-copper-chlorophyllin is essential for this process to work successfully. […] Stability was monitored by measurement of the dye's full absorbance spectrum, since degradation of the dye would be detectable as changes in the absorbance spectrum.

absorbance spectrum after IPL flashes: remained unchanged
Substance: sodium-copper-chlorophyllin [sodium-copper-chlorphyllin]

Reference: patent publication US20080317836A1, “Topical compositions for anti-aging skin treatment” (DISCOVERY PARTNERS LLC, priority 2007, published 2008)
